Test results reported in article PMC11189555, “Aryl amino acetamides prevent Plasmodium falciparum ring development via targeting the lipid-transfer protein PfSTART1” (Nature Communications, 2024).
“And” between values parts separate entries of the source, which are not always exact repeats. Equal values may be shown once. Read-outs that look alike come from different tables or passages of the source.

Columns and labels:
CR-WT parasites = assay: Growth inhibition assay (72 h, LDH activity); format: cell-based, Plasmodium falciparum; settings: CR-WT; for inhibition at 0.1 µM / inhibition at up to 0.1 µM / EC50: Plasmodium falciparum; for inhibition at 0.1 µM / inhibition at up to 0.1 µM: read-out: NORMALISED (growth inhibition, LDH absorbance); for EC50: read-out: EC50 W-991 (95% confidence interval), Fig 4C, n = 3
Procedure: Parasite growth assays with inhibitory compounds were performed as per[11] and are fully described in the Supplementary Information.
Molecular biology and transfection of P. falciparum: CRISPR method.
The full 5’ homology region of pfstart1 (either WT, N309K or N330K) was amplified from pPfSTART1-HA-2A-Neo-glmS with the same 5’ BglII primer and a new 3’ primer that replaced with PstI with SpeI and introduced a stop codon. The PCR product was then digested with BglII and SpeI and inserted into similarly digested p1.2 parasite vector2. The p1.2 vector had previously been inserted with a homology region amplified from the 3’ end of the pfstart1 gene (3’HB) to form a second homology block for double recombination. The primers used to amplify 3’HB are listed primers listed in […]
60 μg of p1.2-PfSTART1(WT/N309K/N330K) plasmid was linearised with KasI, precipitated in 3 M sodium acetate and ethanol (70% final concentration) overnight at -20°C. The DNA pellet was washed in cold 70% ethanol and resuspended in cytomix 3.
50 μ M of crRNA ( Table S 2) and 50 μM of tracRNA (Integrated DNA Technologies) were allowed to form a duplex (5 min at 95°C), and Cas9 enzyme (Integrated DNA Technologies) was added, and incubated for 20 min at room temperature 4. This crRNA -tracRNA -Cas9 mix was added to each DNA preparation and transfected to 3D7 ring parasites using the Bio -Rad Gene Pulser at 310 V and 950 μF.
Parasites containing the transfected DNA were selected using 2.5 nM WR99210 (Jacobus). Parasites lines were cloned using limiting dilution. Correct integration was tested by PCR (using primer START_5’UTR.F and START_Int.R1 , Table S 2), and sequencing was done using the primers START_3F and START_Int.R2 (Table S 2).
Growth inhibition assays. Synchronised ring-stage parasites (0.3-0.6% parasitemia, 2% haematocrit) were grown for 72 h in a serial-dilution of the compound under […]
and compound 4. Note that M-833 was first purchased from MolPort (MolPort -002-267-916) then made in-house at WEHI: the differences observed in EC50s across experiments are attributed to the different batches of M -833. For some experiments, 0, 0.25 or 2.5 mM of glucosamine (GlcN) was also added. Experiments were set up in technical duplicates or triplicates. Following a freeze -thaw cycle, lactate dehydrogenase (LDH) activity was assessed as an indicator of parasite growt h 5. 30 μL of parasite culture was incubated for 30 min in the dark with 75 μL Malstat mixture (0.1 M Tris pH 9.0, 20 g/L lactic acid, pH 7.5, 0.2% Triton-X100, 0.5 g/L acetylpyridine adenine dinucleotide (APAD, Sigma), 200 μg/mL nitroblue tetrazolium (NBT; Sigma), 1 μg/mL phenozine ethosulfate (PES; Sigma)). Absorbance was then measured at 650 nm, transformed using the formula below, plotted against the logarithm of the concentrations, and a non-linear regression (log(inhibitor) vs. response, variable slope) was calculated using GraphPad Prism to assess the half-inhibitory […]
Growth inhibition % = (1 − average(sample)− average(uRBC)) ∗ 100 […]
The DMSO samples were also used to assess growth of parasite in the presence of 0.25 and 2.5 mM GlcN (normalised by DMSO in 0 mM GlcN). […]

[1] = test system: female gametes from mature stage V gametocytes; assay: Dual gamete formation assay: female gamete formation (Pfs25 expression); format: cell-based, Plasmodium falciparum
Procedure: The compounds were tested in the P. falciparum Dual Gamete Formation Assay (PfDGFA)[84], fully described in the Supplementary Information. […]
Dual gamete formation assays. The compounds were tested in the P. falciparum Dual Gamete Formation Assay (PfDGFA) 13. Briefly, mature stage V gametocytes were exposed to compounds for 48 h at 37°C in 384 well plates in gametocyte culture medium (RPMI 1640 supplemented with 25 mM HEPES, 50 μg/mL hypoxanthine, 4.8 g/L NaHCO3, 2 mM L-glutamine, 5% pooled type AB serum, 0.5% Albumax II (Gibco)) under a 1% O2, 3% CO2, 96% N2 environment. Gametogenesis was then triggered by the addition of 10 μL ookinete medium (gametocyte culture medium supplemented with 100 μM xanthurenic acid and 0.27 µg/mL Cy3-labelled anti-Pfs25 antibody) to each well at room temperature. Plates were then cooled on a metal block at 4°C for four min to ensure even cooling and then stabilised for a further 4 min at 28°C. At 20 min post-induction, male gametogenesis was recorded in each well by automated brightfield microscopy using a x4 objective lens and 1.5x magnifier (x6 effective magnification). Afterward, plates were incubated in the dark at room temperature for 24 h and then female gametogenesis recorded in each well by automated fluorescence microscopy (anti-Pfs25-positive cells). All experiments were performed in quadruplicate with DMSO and cabamiquine (DDD107498)17 as negative and positive controls respectively. All data was evaluated in comparison to the positive and negative controls to calculate percentage inhibition of male and female gametocytes, and dose response analysis and IC50 calculation performed using GraphPad Prism. […]

[2] = 0.25 mM GlcN, dilution point 1 of 10, starting concentration 100 nM
[3] = 2.5 mM GlcN, dilution point 1 of 10, starting concentration 100 nM
[4] = 2.5 mM GlcN, dilution point 2 of 10 from starting concentration 100 nM
[5] = 2.5 mM GlcN, dilution point 3 of 10 from starting concentration 100 nM
[6] = 2.5 mM GlcN, dilution point 4 of 10 from starting concentration 100 nM
[7] = 2.5 mM GlcN, dilution point 6 of 10 from starting concentration 100 nM

CC(C)(Nc1ccc(Cl)c(S(=O)(=O)N2CCOCC2)c1)C(=O)Nc1ccc(F)c(Cl)c1 [W-991]
NORMALISED (growth inhibition, LDH absorbance vs DMSO and uRBC) (CR-WT parasites; 0 mM GlcN, W991 at 1.23457 nM): 49.5102 and 70.9626 | NORMALISED (growth inhibition, LDH absorbance vs DMSO and uRBC) (CR-WT parasites; 0 mM GlcN, W991 at 3.7037 nM): 86.3119 and 94.5107 | NORMALISED (growth inhibition, LDH absorbance vs DMSO and uRBC) (CR-WT parasites; 0 mM GlcN, W991 at 11.1111 nM): 91.2364 and 97.6134 | NORMALISED (growth inhibition, LDH absorbance vs DMSO and uRBC) (CR-WT parasites; 0 mM GlcN, W991 at 33.3333 nM): 92.4279 and 96.4200 | NORMALISED (growth inhibition, LDH absorbance vs DMSO and uRBC) (CR-WT parasites; 0 mM GlcN, W991 at 100 nM): 91.9778 and 98.0111 | NORMALISED (growth inhibition, LDH absorbance) (CR-WT parasites; [2]): 97.4106 | NORMALISED (growth inhibition, LDH absorbance) (CR-WT parasites; 0.25 mM GlcN, dilution point 2 of 10 from starting concentration 100 nM): 93.8101 | NORMALISED (growth inhibition, LDH absorbance) (CR-WT parasites; 0.25 mM GlcN, dilution point 3 of 10 from starting concentration 100 nM): 94.0567 | NORMALISED (growth inhibition, LDH absorbance) (CR-WT parasites; 0.25 mM GlcN, dilution point 4 of 10 from starting concentration 100 nM): 92.7990 | NORMALISED (growth inhibition, LDH absorbance) (CR-WT parasites; 0.25 mM GlcN, dilution point 5 of 10 from starting concentration 100 nM): 69.6729 and 71.5413 | NORMALISED (growth inhibition, LDH absorbance) (CR-WT parasites; 0.25 mM GlcN, dilution point 6 of 10 from starting concentration 100 nM): 30.2387 and 29.5808 | NORMALISED (growth inhibition, LDH absorbance) (CR-WT parasites; [3]): 92.5403 | NORMALISED (growth inhibition, LDH absorbance) (CR-WT parasites; [4]): 92.2581 | NORMALISED (growth inhibition, LDH absorbance) (CR-WT parasites; [5]): 92.0699 | NORMALISED (growth inhibition, LDH absorbance) (CR-WT parasites; [6]): 91.3306 | NORMALISED (growth inhibition, LDH absorbance) (CR-WT parasites; 2.5 mM GlcN, dilution point 5 of 10 from starting concentration 100 nM): 90.4301 | NORMALISED (growth inhibition, LDH absorbance) (CR-WT parasites; [7]): 75.1747 | NORMALISED (growth inhibition, LDH absorbance) (CR-WT parasites; 2.5 mM GlcN, dilution point 7 of 10 from starting concentration 100 nM): 66.8125 and 50.5511 | NORMALISED (growth inhibition, LDH absorbance) (CR-WT parasites; 2.5 mM GlcN, dilution point 8 of 10 from starting concentration 100 nM): 47.5123 and 39.2070 | NORMALISED (growth inhibition, LDH absorbance) (CR-WT parasites; 2.5 mM GlcN, dilution point 9 of 10 from starting concentration 100 nM): 32.6882 and 33.0782 | NORMALISED (growth inhibition, LDH absorbance) (CR-WT parasites; 2.5 mM GlcN, dilution point 10 of 10 from starting concentration 100 nM): 35.7796 and 19.6829 | fold sensitised on PfSTART1 knock-down with GlcN (CR-WT parasites; Fig 4C): 7 fold | inhibition at 0.1 µM (CR-WT parasites; [2]): 93.4% | inhibition at 0.1 µM (CR-WT parasites; [3]): 94.2% | inhibition at up to 0.1 µM (CR-WT parasites; [4]): 91.4% | inhibition at up to 0.1 µM (CR-WT parasites; [5]): 93% | inhibition at up to 0.1 µM (CR-WT parasites; [6]): 91.6% | inhibition at up to 0.1 µM (CR-WT parasites; [7]): 80.3% | EC50 (CR-WT parasites; 0 mM GlcN): 1.08 nM | EC50 (CR-WT parasites; 0.25 mM GlcN): 0.727 nM | EC50 (CR-WT parasites; 2.5 mM GlcN): 0.154 nM | inhibition of female gamete formation ([1]; 1 µM, 48 h treatment of mature gametocytes): no inhibition | Dual Gamete Formation Assay: Female at 1 µM, Mean ([1]; mean of 4 plates): -2.932
